Tests used:
[1] = target: T1, (1,3)-β-D-glucan synthase (GS), catalytic subunit Fks1p (Saccharomyces cerevisiae, UniProt P38631); assay: GS activity assay; format: biochemical
[2] = target: T1, (1,3)-β-D-glucan synthase (GS), catalytic subunit Fks1p; assay: GS activity assay with […] UDP-Glc; format: biochemical

T1 sequence (P38631 whole entry): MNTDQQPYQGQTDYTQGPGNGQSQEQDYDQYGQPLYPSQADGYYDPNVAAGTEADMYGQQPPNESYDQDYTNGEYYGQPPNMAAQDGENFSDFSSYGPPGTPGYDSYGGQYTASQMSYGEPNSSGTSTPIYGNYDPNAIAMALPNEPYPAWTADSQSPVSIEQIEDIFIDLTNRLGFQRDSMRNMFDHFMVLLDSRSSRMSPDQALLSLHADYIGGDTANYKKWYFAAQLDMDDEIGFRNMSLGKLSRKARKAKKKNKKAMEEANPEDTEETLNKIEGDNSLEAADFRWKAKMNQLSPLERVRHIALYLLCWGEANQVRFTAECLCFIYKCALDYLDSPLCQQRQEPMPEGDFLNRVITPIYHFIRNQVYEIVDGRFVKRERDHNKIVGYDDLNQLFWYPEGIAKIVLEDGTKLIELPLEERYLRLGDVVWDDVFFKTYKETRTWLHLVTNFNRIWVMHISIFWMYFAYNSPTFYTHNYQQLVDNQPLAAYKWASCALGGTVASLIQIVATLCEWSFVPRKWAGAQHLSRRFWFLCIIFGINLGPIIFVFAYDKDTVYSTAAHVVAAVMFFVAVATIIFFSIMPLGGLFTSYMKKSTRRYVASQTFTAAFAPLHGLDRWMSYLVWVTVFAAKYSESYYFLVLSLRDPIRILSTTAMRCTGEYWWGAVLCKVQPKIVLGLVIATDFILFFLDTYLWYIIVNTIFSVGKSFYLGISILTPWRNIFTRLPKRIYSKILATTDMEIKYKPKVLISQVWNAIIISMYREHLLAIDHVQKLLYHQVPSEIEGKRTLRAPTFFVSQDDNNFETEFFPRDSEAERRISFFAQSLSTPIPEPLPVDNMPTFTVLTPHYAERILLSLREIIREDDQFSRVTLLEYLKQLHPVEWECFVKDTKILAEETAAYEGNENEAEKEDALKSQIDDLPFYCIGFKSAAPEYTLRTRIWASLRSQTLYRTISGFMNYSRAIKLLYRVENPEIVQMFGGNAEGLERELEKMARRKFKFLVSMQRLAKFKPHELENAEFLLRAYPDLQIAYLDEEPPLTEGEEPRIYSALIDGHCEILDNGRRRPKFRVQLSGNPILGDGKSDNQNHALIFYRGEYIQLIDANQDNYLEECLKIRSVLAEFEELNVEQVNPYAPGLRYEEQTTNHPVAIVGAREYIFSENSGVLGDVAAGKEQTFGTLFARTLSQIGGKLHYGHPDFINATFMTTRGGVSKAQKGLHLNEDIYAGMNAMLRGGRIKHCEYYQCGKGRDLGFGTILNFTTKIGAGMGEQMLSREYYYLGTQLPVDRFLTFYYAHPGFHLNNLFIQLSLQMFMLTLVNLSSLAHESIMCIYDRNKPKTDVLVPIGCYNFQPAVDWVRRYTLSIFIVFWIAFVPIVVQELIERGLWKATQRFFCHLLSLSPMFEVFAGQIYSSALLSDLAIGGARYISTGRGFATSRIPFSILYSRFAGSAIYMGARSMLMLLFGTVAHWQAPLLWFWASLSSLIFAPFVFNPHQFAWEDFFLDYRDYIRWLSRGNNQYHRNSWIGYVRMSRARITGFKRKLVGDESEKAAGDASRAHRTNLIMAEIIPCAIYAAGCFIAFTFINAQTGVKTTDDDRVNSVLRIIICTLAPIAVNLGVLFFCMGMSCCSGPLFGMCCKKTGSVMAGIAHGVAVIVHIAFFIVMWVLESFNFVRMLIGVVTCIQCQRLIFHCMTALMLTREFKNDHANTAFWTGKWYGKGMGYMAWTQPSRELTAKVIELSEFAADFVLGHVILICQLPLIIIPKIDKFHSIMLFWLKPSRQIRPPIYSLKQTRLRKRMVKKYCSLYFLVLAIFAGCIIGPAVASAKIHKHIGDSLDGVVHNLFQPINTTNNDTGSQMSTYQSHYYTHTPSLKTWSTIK
T1 sequence (P06780 2-206, further chain): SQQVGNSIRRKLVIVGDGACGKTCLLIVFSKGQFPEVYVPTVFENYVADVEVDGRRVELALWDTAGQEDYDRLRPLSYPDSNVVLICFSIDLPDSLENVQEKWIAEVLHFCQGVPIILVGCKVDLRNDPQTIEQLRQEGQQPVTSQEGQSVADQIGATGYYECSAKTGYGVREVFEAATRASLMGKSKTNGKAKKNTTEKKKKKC

IC50 [2] [µM] | SMILES | IC50 [1] [µM]
 | CC[C@H](C)C[C@H](C)CCCCCCCCC(=O)N[C@H]1C[C@@H](O)[C@@H](NCCN)NC(=O)[C@@H]2[C@@H](O)CCN2C(=O)[C@H]([C@H](O)CCN)NC(=O)[C@H]([C@H](O)[C@@H](O)c2ccc(O)cc2)NC(=O)[C@@H]2C[C@@H](O)CN2C(=O)[C@H]([C@@H](C)O)NC1=O [CFN, caspofungin] | 0.238
5300 ± 1000 | O=c1ccn([C@@H]2O[C@H](COP(=O)(O)OP(=O)(O)O[C@H]3O[C@H](CO)[C@@H](O)[C@H](F)[C@H]3O)[C@@H](O)[C@H]2O)c(=O)[nH]1 [UDP-3’-F-Glc] | 
2400 ± 200 | O=c1ccn([C@@H]2O[C@H](COP(=O)(O)OP(=O)(O)O[C@H]3O[C@H](CO)[C@@H](O)C[C@H]3O)[C@@H](O)[C@H]2O)c(=O)[nH]1 [UDP-3’-dGlc] | 

— article PMC7015794 (Biochemistry, 2020)
